How the values were obtained:
[1] = test system: streptozotocin-induced mechanical allodynia in mice; test: Streptozotocin-induced diabetic neuropathic pain model, von Frey test; type: in vivo; conditions: three weeks after STZ
Description: The response was tested 3 weeks after the streptozotocin injection. […] Importantly, d4-(R)-1 completely abolished the symptoms of developing sensory neuropathy at all doses.
All tests/models were performed based on procedures described in the specialist literature: formalin test (Beirith et al. Eur. J. Pharmacol. 1998, 345, 233-245), capsaicin-induced pain model (Mogilski et al. Pharmacol. Biochem. Behav. 2015, 133, 99-110), oxaliplatin-induced neuropathic pain model-von Frey's test (Sałat et al. Pharmacol. Biochem. Behav. 2014, 122, 173-181), streptozotocin-induced diabetic neuropathic pain model-von Frey's test (Sałat et al. Neuropharmacology 2017, 125, 181-188; Tanabe et al. J. Pharmacol. Sci. 2008, 107, 213-220). The test group consisted of 8-10 animals.

[2] = test system: maximal electroshock seizures in mice; test: Maximal electroshock seizure test (MES); type: in vivo
Description: (§1) Initial screening was performed on groups of 4 mice. The mean effective dose (ED50) in a given test and the neurotoxic dose in the rotarod test (TD50) were estimated on the basis of the results obtained on 3-4 groups of animals consisting of 6 animals.
In the maximal electroshock seizure test (MES), the seizures were induced by 500 V, 25 mA electrical stimulus of 0.2 s in duration. The electrical pulse was generated using an electric shock generator (Rodent shocker, Type 221, Hugo Sachs Elektronik, Germany) and delivered to the animal using electrodes placed on the auricles. The study was conducted 30 minutes/2 hours after intraperitoneal administration of the compounds at various doses. During the experiment, the number of animals that experienced a seizure episode in the form of hindlimb tonic extension was counted (Łuszczki, J.J. et al. Fundam. Clin. Pharmacol. 2008, 22, 69-74).
(§2) The ED50 (effective dose) and TD50 (toxic dose) values along with the corresponding 95% confidence limits were calculated based on the Litchfield and Wilcoxon method (Litchfield, J.T.; Wilcoxon, F. J. Pharmacol. Exp. Ther. 1949, 96, 99-113). To perform a statistical evaluation of the results in the scPTZ test, one-way ANOVA variance analysis followed by Dunnett's post hoc test were used. The values were considered statistically significant if p<0.05.

[3] = test system: human liver microsomes (HLMs); test: In vitro metabolic stability, human liver microsomes; type: in vitro ADME; conditions: 120-minute incubation with HLMs
Description: Metabolic stability assessment was performed using mouse (MLMs) and human (HLMs) liver microsomes purchased from Sigma-Aldrich (St. Louis, MO, USA). The detailed methodology is described in the literature (Kamiński et al. J. Med. Chem. 2015, 58, 5274-5286). The reaction mixture was prepared by mixing […] of the tested compound with mouse or human microsomes (1 mg/mL) in 10 mM TRIS-HCl buffer. The reaction mixture was pre-incubated for 5 min at 37° C. After the initial incubation, 50 μL of the NADPH Regeneration System (Promega, Madison, WI, USA) was added to initiate the reaction. The reaction mixture was then incubated for 120 min at 37° C. 200 μL of cold extra pure methanol was added to complete the reaction. The mixture was then centrifuged at 14,000 g for 15 min and the supernatants were analyzed using a Waters ACQUITY™ TQD LC/MS system with a TQ detector (Waters, Milford, USA). Each experiment was performed in triplicate.

[4] = test system: psychomotor seizures induced by a 32 mA, 6 Hz stimulus in mice; test: Psychomotor seizure test 6 Hz (32 mA); type: in vivo
Description: as §1
In the psychomotor seizure test (6 Hz test), seizures were induced by a 32 mA and/or 44 mA electrical stimulus of a frequency of 6 pulses per second. An electrical pulse was generated using an electric shock generator (ECT Unit 57800; Ugo Basile, Gemonio, Italy) and delivered to the animal using corneal electrodes. Before starting the test, the eye surface was gently moistened with a solution of local anesthetic (1% lidocaine solution). The study was conducted 30 minutes/2 hours after intraperitoneal administration of the compounds at various doses. An electrical stimulus was delivered continuously for a period of 3 seconds, followed by observation of the animal for a period of 10 seconds. During the experiment, the number of animals with an episode of psychomotor convulsions was counted: motor inhibition, staggering, maintaining a sitting posture, forelimb clonus, twitching of the vibrissae and Straub-tail were observed (Leclercq, K.; Kaminski, R.M. Epilepsia 2015, 56, 310-318).
as §2

[5] = 0.5 h after i.p. administration
[6] = 2.0 h after i.p. administration

For `[2H]C1([2H])C(=O)N([C@H](C)C(=O)NCc2ccccc2)C(=O)C1([2H])[2H]` [d4-(R)-1, (R)-N-benzyl-2-(2,5-dioxopyrrolidin-1-yl-3,3,4,4-d4) propanamide], the “pain threshold (von Frey)” value ([1]; 30 mg/kg i.p.) was 6.80 ± 0.54 g, the “pain threshold, % of baseline” value ([1]; 30 mg/kg i.p.) was 115.4% and the “pain threshold (von Frey)” value ([1]; 60 mg/kg i.p.) was 8.64 ± 0.72 g. The “pain threshold, % of baseline” value ([1]; 60 mg/kg i.p.) was 146.6%, the “pain threshold (von Frey)” value ([1]; 90 mg/kg i.p.) was 9.40 ± 0.61 g and the “pain threshold, % of baseline” value ([1]; 90 mg/kg i.p.) was 159.6%. The ED50 MES [2, 5] was 43.7 mg/kg, the ED50 MES [2, 6] was 50.1 mg/kg and the metabolic stability [3] was “high metabolic stability”. The ED50 6 Hz (32 mA) [4, 5] was 18.6 mg/kg and the ED50 6 Hz (32 mA) [4, 6] was 46.4 mg/kg.

Source: patent US20250042848A1, “DEUTERATED FUNCTIONALIZED DERIVATIVES OF alpha-ALANINE, IN [sequence] FOR THE TREATMENT OF NEUROLOGICAL DISEASES” (UNIWERSYTET JAGIELLONSKI, priority 2021, published 2025)
